Tested on: participants with cocaine use disorder
Test: Medical safety session: subjective effects questionnaires after intranasal cocaine
Type: in vivo, human
Procedure: Participants completed one, single-blind medical safety session to ensure they could tolerate intranasal cocaine. Intranasal cocaine doses (i.e., 0 [placebo], 10, 20, 40 and 80 mg) were administered in ascending order. Placebo (i.e., 0 mg) was administered at 0900 hours. The subjective-effect questionnaires and cardiovascular measures described below were completed 30 minutes before placebo administration (i.e., 0830 hours), immediately following and at 15-minute intervals for 45 minutes. Subsequent cocaine administrations were separated by 45 minutes.

[1] = Cocaine 10 mg, Topiramate (0 mg/day) group
[2] = Cocaine 10 mg, Topiramate (50 mg/day) group
[3] = Cocaine 10 mg, Topiramate (100 mg/day) group
[4] = Cocaine 20 mg, Topiramate (0 mg/day) group
[5] = Cocaine 20 mg, Topiramate (50 mg/day) group
[6] = Cocaine 20 mg, Topiramate (100 mg/day) group

## COC(=O)[C@H]1[C@@H](OC(=O)c2ccccc2)C[C@@H]2CC[C@H]1N2C [Cocaine, cocaine]
[1]
  Adjective Rating Scales Sedative, mean peak effect: 2.0
  Adjective Rating Scales Stimulant, mean peak effect: 6.1
  Drug-Effect Questionnaire Active-Alert-Energetic, mean peak effect: 17.0
  Drug-Effect Questionnaire Any Effect, mean peak effect: 21.5
  Drug-Effect Questionnaire Bad Effects, mean peak effect: 4.4
  Drug-Effect Questionnaire Euphoric, mean peak effect: 10.1
  Drug-Effect Questionnaire Good Effects, mean peak effect: 21.5
  Drug-Effect Questionnaire High, mean peak effect: 17.3
  Drug-Effect Questionnaire Irregular Heart Beat, mean peak effect: 7.0
  Drug-Effect Questionnaire Like Drug, mean peak effect: 25.2
  Drug-Effect Questionnaire Nausea-Queasy-Sick, mean peak effect: 3.3
  Drug-Effect Questionnaire Nervous-Anxious, mean peak effect: 5.1
  Drug-Effect Questionnaire Performance Impaired, mean peak effect: 4.9
  Drug-Effect Questionnaire Performance Improved, mean peak effect: 10.7
  Drug-Effect Questionnaire Restless, mean peak effect: 7.9
  Drug-Effect Questionnaire Rush, mean peak effect: 15.5
  Drug-Effect Questionnaire Shaky-Jittery, mean peak effect: 3.9
  Drug-Effect Questionnaire Sluggish-Fatigued-Lazy, mean peak effect: 8.1
  Drug-Effect Questionnaire Stimulated, mean peak effect: 13.8
  Drug-Effect Questionnaire Talkative-Friendly, mean peak effect: 17.0
  Drug-Effect Questionnaire Willing to Pay For, mean peak effect: 20.6
  Drug-Effect Questionnaire Willing to Take Again, mean peak effect: 26.3
[2]
  Adjective Rating Scales Sedative, mean peak effect: 3.9
  Adjective Rating Scales Stimulant, mean peak effect: 8.7
  Drug-Effect Questionnaire Active-Alert-Energetic, mean peak effect: 11.2
  Drug-Effect Questionnaire Any Effect, mean peak effect: 7.0
  Drug-Effect Questionnaire Bad Effects, mean peak effect: 1.2
  Drug-Effect Questionnaire Euphoric, mean peak effect: 3.4
  Drug-Effect Questionnaire Good Effects, mean peak effect: 6.4
  Drug-Effect Questionnaire High, mean peak effect: 6.1
  Drug-Effect Questionnaire Irregular Heart Beat, mean peak effect: 0.6
  Drug-Effect Questionnaire Like Drug, mean peak effect: 9.2
  Drug-Effect Questionnaire Nausea-Queasy-Sick, mean peak effect: 1.2
  Drug-Effect Questionnaire Nervous-Anxious, mean peak effect: 0.3
  Drug-Effect Questionnaire Performance Impaired, mean peak effect: 0.9
  Drug-Effect Questionnaire Performance Improved, mean peak effect: 3.3
  Drug-Effect Questionnaire Restless, mean peak effect: 1.2
  Drug-Effect Questionnaire Rush, mean peak effect: 5.9
  Drug-Effect Questionnaire Shaky-Jittery, mean peak effect: 1.4
  Drug-Effect Questionnaire Sluggish-Fatigued-Lazy, mean peak effect: 5.4
  Drug-Effect Questionnaire Stimulated, mean peak effect: 11.9
  Drug-Effect Questionnaire Talkative-Friendly, mean peak effect: 4.7
  Drug-Effect Questionnaire Willing to Pay For, mean peak effect: 5.4
  Drug-Effect Questionnaire Willing to Take Again, mean peak effect: 12.0
[3]
  Adjective Rating Scales Sedative, mean peak effect: 3.1
  Adjective Rating Scales Stimulant, mean peak effect: 10.6
  Drug-Effect Questionnaire Active-Alert-Energetic, mean peak effect: 6.4
  Drug-Effect Questionnaire Any Effect, mean peak effect: 10.7
  Drug-Effect Questionnaire Bad Effects, mean peak effect: 0.2
  Drug-Effect Questionnaire Euphoric, mean peak effect: 5.6
  Drug-Effect Questionnaire Good Effects, mean peak effect: 14.5
  Drug-Effect Questionnaire High, mean peak effect: 7.4
  Drug-Effect Questionnaire Irregular Heart Beat, mean peak effect: 2.8
  Drug-Effect Questionnaire Like Drug, mean peak effect: 10.1
  Drug-Effect Questionnaire Nausea-Queasy-Sick, mean peak effect: 6.8
  Drug-Effect Questionnaire Nervous-Anxious, mean peak effect: 0.2
  Drug-Effect Questionnaire Performance Impaired, mean peak effect: 0.2
  Drug-Effect Questionnaire Performance Improved, mean peak effect: 2.1
  Drug-Effect Questionnaire Restless, mean peak effect: 0.7
  Drug-Effect Questionnaire Rush, mean peak effect: 6.9
  Drug-Effect Questionnaire Shaky-Jittery, mean peak effect: 0.3
  Drug-Effect Questionnaire Sluggish-Fatigued-Lazy, mean peak effect: 0.5
  Drug-Effect Questionnaire Stimulated, mean peak effect: 7.7
  Drug-Effect Questionnaire Talkative-Friendly, mean peak effect: 7.8
  Drug-Effect Questionnaire Willing to Pay For, mean peak effect: 8.6
  Drug-Effect Questionnaire Willing to Take Again, mean peak effect: 12.6
[4]
  Adjective Rating Scales Sedative, mean peak effect: 4.6
  Adjective Rating Scales Stimulant, mean peak effect: 8.4
  Drug-Effect Questionnaire Active-Alert-Energetic, mean peak effect: 23.5
  Drug-Effect Questionnaire Any Effect, mean peak effect: 28.6
  Drug-Effect Questionnaire Bad Effects, mean peak effect: 4.5
  Drug-Effect Questionnaire Euphoric, mean peak effect: 11.5
  Drug-Effect Questionnaire Good Effects, mean peak effect: 26.1
  Drug-Effect Questionnaire High, mean peak effect: 20.0
  Drug-Effect Questionnaire Irregular Heart Beat, mean peak effect: 8.8
  Drug-Effect Questionnaire Like Drug, mean peak effect: 27.8
  Drug-Effect Questionnaire Nausea-Queasy-Sick, mean peak effect: 2.9
  Drug-Effect Questionnaire Nervous-Anxious, mean peak effect: 8.5
  Drug-Effect Questionnaire Performance Impaired, mean peak effect: 10.4
  Drug-Effect Questionnaire Performance Improved, mean peak effect: 12.0
  Drug-Effect Questionnaire Restless, mean peak effect: 8.9
  Drug-Effect Questionnaire Rush, mean peak effect: 19.4
  Drug-Effect Questionnaire Shaky-Jittery, mean peak effect: 8.8
  Drug-Effect Questionnaire Sluggish-Fatigued-Lazy, mean peak effect: 6.8
  Drug-Effect Questionnaire Stimulated, mean peak effect: 18.7
  Drug-Effect Questionnaire Talkative-Friendly, mean peak effect: 18.6
  Drug-Effect Questionnaire Willing to Pay For, mean peak effect: 24.9
  Drug-Effect Questionnaire Willing to Take Again, mean peak effect: 32.9
[5]
  Adjective Rating Scales Sedative, mean peak effect: 2.8
  Adjective Rating Scales Stimulant, mean peak effect: 8.6
  Drug-Effect Questionnaire Active-Alert-Energetic, mean peak effect: 12.8
  Drug-Effect Questionnaire Any Effect, mean peak effect: 9.9
  Drug-Effect Questionnaire Bad Effects, mean peak effect: 0.3
  Drug-Effect Questionnaire Euphoric, mean peak effect: 12.4
  Drug-Effect Questionnaire Good Effects, mean peak effect: 11.2
  Drug-Effect Questionnaire High, mean peak effect: 13.1
  Drug-Effect Questionnaire Irregular Heart Beat, mean peak effect: 0.6
  Drug-Effect Questionnaire Like Drug, mean peak effect: 14.6
  Drug-Effect Questionnaire Nausea-Queasy-Sick, mean peak effect: 2.2
  Drug-Effect Questionnaire Nervous-Anxious, mean peak effect: 0.0
  Drug-Effect Questionnaire Performance Impaired, mean peak effect: 2.4
  Drug-Effect Questionnaire Performance Improved, mean peak effect: 5.4
  Drug-Effect Questionnaire Restless, mean peak effect: 0.7
  Drug-Effect Questionnaire Rush, mean peak effect: 14.1
  Drug-Effect Questionnaire Shaky-Jittery, mean peak effect: 1.1
  Drug-Effect Questionnaire Sluggish-Fatigued-Lazy, mean peak effect: 0.8
  Drug-Effect Questionnaire Stimulated, mean peak effect: 15.6
  Drug-Effect Questionnaire Talkative-Friendly, mean peak effect: 10.2
  Drug-Effect Questionnaire Willing to Pay For, mean peak effect: 7.6
  Drug-Effect Questionnaire Willing to Take Again, mean peak effect: 10.2
[6]
  Adjective Rating Scales Sedative, mean peak effect: 3.7
  Adjective Rating Scales Stimulant, mean peak effect: 11.1
  Drug-Effect Questionnaire Active-Alert-Energetic, mean peak effect: 11.0
  Drug-Effect Questionnaire Any Effect, mean peak effect: 11.7
  Drug-Effect Questionnaire Bad Effects, mean peak effect: 2.2
  Drug-Effect Questionnaire Euphoric, mean peak effect: 5.7
  Drug-Effect Questionnaire Good Effects, mean peak effect: 10.2
  Drug-Effect Questionnaire High, mean peak effect: 12.8
  Drug-Effect Questionnaire Irregular Heart Beat, mean peak effect: 3.2
  Drug-Effect Questionnaire Like Drug, mean peak effect: 14.9
  Drug-Effect Questionnaire Nausea-Queasy-Sick, mean peak effect: 10.6
  Drug-Effect Questionnaire Nervous-Anxious, mean peak effect: 6.6
  Drug-Effect Questionnaire Performance Impaired, mean peak effect: 5.5
  Drug-Effect Questionnaire Performance Improved, mean peak effect: 4.0
  Drug-Effect Questionnaire Restless, mean peak effect: 0.2
  Drug-Effect Questionnaire Rush, mean peak effect: 12.4
  Drug-Effect Questionnaire Shaky-Jittery, mean peak effect: 3.1
  Drug-Effect Questionnaire Sluggish-Fatigued-Lazy, mean peak effect: 1.1
  Drug-Effect Questionnaire Stimulated, mean peak effect: 10.5
  Drug-Effect Questionnaire Talkative-Friendly, mean peak effect: 11.2
  Drug-Effect Questionnaire Willing to Pay For, mean peak effect: 11.7
  Drug-Effect Questionnaire Willing to Take Again, mean peak effect: 11.6
